Reference: publication PMC4249970 (PLoS ONE, 2014)

How the values were obtained:
[1] = test system: acetic acid-induced writhing in CD-1 male mice; assay: acetic acid writhing test (model of visceral pain); format: in vivo; settings: for number of stretches: writhing test 30 minutes after antagonist
Experimental: After acetic acid administration, mice were placed in individual transparent containers and, after 5 min, the number of writhes was counted during a 10 min period.
The animals, CD-1 male mice (25–27 g), were redistributed in groups, two of which were used as the control group. […] All drugs were intraperitoneally (i.p.) administered, 30 minutes before the algogen agent. Control mice were treated with 10 ml/kg of saline solution. Each group included 10–12 animals; those animals showing behavioral alterations were previously discarded. Each animal was used only once. An observer who was unaware of the different treatments carried out the collection of data.
The experimental test used was the acetic acid writhing test. The effect of the i.p. administration of 10 ml/kg of acetic acid (2%) was measured by quantifying the number of writhing responses in the three groups of animals over a 10 minutes period. Responses were measured starting 5 minutes after the algogen agent was administered. The animals used were supplied by the animal house of Universidad Rey Juan Carlos. Room temperature was kept at 22±1°C. A 12 hours light - dark cycle was started at 8:00 a.m., at constant humidity. All animals were given free access to food and water.

human recombinant COX-2 = molecular target: T1, human recombinant COX-2 (Homo sapiens, UniProt P35354); assay: COX inhibitor screening assay (Cayman kit 700100); format: biochemical; settings: at 10 mM
T1 construct: purchased Cayman Chemical Company kit 700100
T1 sequence (P35354 18-604): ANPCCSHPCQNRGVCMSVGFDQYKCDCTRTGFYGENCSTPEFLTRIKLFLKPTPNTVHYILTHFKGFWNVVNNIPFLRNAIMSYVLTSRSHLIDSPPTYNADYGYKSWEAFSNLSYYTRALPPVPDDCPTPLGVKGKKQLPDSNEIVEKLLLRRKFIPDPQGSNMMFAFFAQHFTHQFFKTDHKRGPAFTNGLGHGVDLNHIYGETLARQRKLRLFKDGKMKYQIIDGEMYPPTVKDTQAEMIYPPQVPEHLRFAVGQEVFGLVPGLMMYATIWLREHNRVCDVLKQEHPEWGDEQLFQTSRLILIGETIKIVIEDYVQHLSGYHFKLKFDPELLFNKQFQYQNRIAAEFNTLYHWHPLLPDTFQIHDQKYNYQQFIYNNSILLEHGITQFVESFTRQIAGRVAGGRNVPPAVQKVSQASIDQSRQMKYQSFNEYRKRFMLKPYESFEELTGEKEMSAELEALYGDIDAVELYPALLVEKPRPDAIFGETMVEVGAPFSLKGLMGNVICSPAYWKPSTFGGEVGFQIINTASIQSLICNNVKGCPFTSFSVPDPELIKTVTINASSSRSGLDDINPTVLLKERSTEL
Description: A COX inhibitor screening assay (kit 700100) was used to determine the activity of isolated ovine COX-1 and human recombinant COX-2 as described by the manufacturer (Cayman Chemical Company, USA).

TRPV1 = assay: Ca2+ fluorographic assay, TRPV1-SH-SY5Y cells activated by 10 µM capsaicin; format: cell-based; settings: 50 µM compound
Experimental: (§1) For fluorescence assays, cells expressing TRP channels (TRPV1-SH-SY5Y, TRPM8-HEK and TRPA1-IMR90) were seeded in 96-well plates (Corning Incorporated, Corning, NY) at a cell density of 40,000 cells 2 days before treatment. The day of treatment the medium was replaced with 100 µL of the dye loading solution Fluo-4 NW supplemented with probenecid 2.5 mM. Then the compounds dissolved in DMSO were added at the desired concentrations and the plate(s) were incubated at 37°C in a humidified atmosphere of 5% CO2 for 60 minutes.
(§2) The fluorescence was measured using instrument settings appropriate for excitation at 485 nm and emission at 535 nm. (POLARstar Omega BMG LAB tech). A baseline recording of 7 cycles was recorded prior to stimulation with the agonist (10 µM capsaicin for TRPV1, 100 µM menthol for TRPM8, and 100 µM AITC for TRPA1). The corresponding antagonist (10 µM Ruthenium Red for TRPV1 and TRPA1, 100 µM AMTB for TRPM8) was added for the blockade. The changes in fluorescence intensity were recorded during 15 cycles more. DMSO, at the higher concentration used in the experiment, was added to the control wells.
(§3) The degree of blockage (%) of TRP channel activity was calculated by: [drawing 1]

TRPM8 = molecular target: T2, TRPM8 (Homo sapiens, UniProt Q7Z2W7); assay: Ca2+ fluorographic assay, TRPM8-HEK cells activated with 100 µM menthol; format: cell-based; settings: 50 µM compound
T2 construct: expressed in transfected cells; host or cells: HEK
Experimental: as §1, §2, §3

TRPA1 [2] = molecular target: T3, TRPA1 (Homo sapiens, UniProt O75762); assay: Ca2+ fluorographic assay, TRPA1-IMR90 cells activated with 100 µM AITC; format: cell-based; set-up: expressed in transfected cells; host or cells: IMR90
Experimental: as §1, §2, §3

TRPA1 [3] = molecular target: T3, TRPA1; assay: whole-cell voltage clamp of AITC-evoked currents in hTRPA1-expressing IMR-90 cells; format: cell-based; set-up: expressed in transfected cells; host or cells: IMR-90; settings: 100 µM AITC
Experimental: A) Representative whole-cell voltage clamp recording from hTRPA1-expressing IMR-90. Currents were measured every second during a holding potential of -60 mV. Pre-application of 6a/b (20 s) was followed by co-application with 100 µM AITC for 60s in presence of 2.0 mM extracellular Ca^2+. Current traces of different colours denote the different concentrations of compound 6a/b tested. B) Dose response of compound 6a/b blockade activity. Solid line depicts the fitting to a Michaelis isotherm. […] Data are given as mean ± sem, with n≥4 cells) per data point. (TIF) Click here for additional data file.
A) Representative whole-cell voltage clamp recording from hTRPA1-expressing IMR-90 cells in the absence of extracellular Ca^2+. Ionic currents, at positive and negative potentials were measured every 2s during a 350 ms voltage ramp from −60 mV to +60 mV and evoked with 100 µM AITC followed by the addition of 100 µM compound 6a/b for 20s. AITC was present with drug application and after application to evaluated current reversibility B) Current-voltage relationships of TRPA1 in the absence and presence of 100 µM compound 6a/b in Ca^2+ free medium. […] Data were obtained from n≥4 cells. (TIF) Click here for additional data file.

[4] = i.p. 30 minutes before acetic acid

T3 sequence (O75762 whole entry): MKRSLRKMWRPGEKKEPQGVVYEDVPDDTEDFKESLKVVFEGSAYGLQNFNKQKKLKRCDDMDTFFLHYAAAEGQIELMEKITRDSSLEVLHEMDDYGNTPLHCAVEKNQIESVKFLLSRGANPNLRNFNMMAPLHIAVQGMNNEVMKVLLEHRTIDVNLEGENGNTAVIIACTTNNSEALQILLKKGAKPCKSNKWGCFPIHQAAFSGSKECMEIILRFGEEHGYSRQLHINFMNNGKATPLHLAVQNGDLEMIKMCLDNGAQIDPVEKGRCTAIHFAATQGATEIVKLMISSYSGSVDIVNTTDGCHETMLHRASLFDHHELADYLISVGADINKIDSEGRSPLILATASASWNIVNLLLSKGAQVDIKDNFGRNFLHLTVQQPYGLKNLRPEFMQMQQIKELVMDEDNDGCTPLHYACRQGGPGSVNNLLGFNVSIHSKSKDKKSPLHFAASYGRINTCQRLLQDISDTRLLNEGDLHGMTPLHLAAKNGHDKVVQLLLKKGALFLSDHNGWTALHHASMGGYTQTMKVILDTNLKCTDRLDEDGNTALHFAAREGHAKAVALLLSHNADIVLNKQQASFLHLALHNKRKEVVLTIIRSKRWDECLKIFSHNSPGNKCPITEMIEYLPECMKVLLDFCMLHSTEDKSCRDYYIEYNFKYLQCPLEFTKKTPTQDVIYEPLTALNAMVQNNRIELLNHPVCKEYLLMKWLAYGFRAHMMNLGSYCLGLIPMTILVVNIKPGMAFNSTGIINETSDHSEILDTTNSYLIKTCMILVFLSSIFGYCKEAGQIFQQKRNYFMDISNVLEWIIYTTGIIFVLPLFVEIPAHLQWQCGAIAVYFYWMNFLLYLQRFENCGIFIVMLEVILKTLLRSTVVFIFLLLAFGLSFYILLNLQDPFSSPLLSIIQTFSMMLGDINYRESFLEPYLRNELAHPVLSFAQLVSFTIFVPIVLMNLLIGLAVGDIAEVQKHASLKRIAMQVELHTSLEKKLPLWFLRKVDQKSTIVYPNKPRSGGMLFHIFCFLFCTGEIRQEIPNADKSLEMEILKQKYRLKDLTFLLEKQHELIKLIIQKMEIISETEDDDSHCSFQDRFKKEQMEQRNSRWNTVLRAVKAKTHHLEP
T2 sequence (Q7Z2W7 whole entry, species assumed): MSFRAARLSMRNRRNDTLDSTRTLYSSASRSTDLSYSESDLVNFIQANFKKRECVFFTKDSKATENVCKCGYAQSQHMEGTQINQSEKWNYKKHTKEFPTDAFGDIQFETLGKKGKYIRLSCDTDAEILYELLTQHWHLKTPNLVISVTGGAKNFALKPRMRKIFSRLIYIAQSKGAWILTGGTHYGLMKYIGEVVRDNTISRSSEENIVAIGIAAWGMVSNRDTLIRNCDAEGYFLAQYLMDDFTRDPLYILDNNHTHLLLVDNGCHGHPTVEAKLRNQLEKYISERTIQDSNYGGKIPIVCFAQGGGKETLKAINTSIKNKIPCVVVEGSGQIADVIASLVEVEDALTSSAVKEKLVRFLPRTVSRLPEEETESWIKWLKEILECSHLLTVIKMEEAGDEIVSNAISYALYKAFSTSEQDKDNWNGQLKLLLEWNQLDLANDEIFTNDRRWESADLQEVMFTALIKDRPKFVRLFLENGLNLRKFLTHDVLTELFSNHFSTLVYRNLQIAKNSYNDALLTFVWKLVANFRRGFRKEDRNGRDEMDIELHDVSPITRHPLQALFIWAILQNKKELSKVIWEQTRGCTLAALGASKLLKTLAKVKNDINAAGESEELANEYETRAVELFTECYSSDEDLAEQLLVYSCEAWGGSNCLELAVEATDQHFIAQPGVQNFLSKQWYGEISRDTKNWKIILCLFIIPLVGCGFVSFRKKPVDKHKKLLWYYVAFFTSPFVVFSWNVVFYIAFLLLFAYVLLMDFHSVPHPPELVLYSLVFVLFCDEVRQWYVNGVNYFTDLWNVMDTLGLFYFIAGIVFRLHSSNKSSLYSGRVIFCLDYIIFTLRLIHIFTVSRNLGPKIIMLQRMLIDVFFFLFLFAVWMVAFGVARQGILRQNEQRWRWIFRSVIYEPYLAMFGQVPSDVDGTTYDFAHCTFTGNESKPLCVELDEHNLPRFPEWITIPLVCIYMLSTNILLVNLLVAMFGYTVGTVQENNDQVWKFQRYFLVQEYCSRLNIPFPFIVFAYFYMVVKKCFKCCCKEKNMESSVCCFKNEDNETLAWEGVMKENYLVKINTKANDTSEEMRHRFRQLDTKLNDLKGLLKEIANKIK

CC(=O)NC12CC3CC(CC(O)(C3)C1)C2 [compound 5, N-3-hydroxyadamantan-1-yl acetamide]
dose at which the analgesic effect saturated [1, 4]: 200 mg/kg
antinociceptive activity ([1]; i.p. 30 minutes before acetic acid, similar to paracetamol): ~40%

CC(=O)NC1C2CC3CC1CC(O)(C3)C2 (stereo not shown) [compound 6a/b, N-5-hydroxyadamantan-2-yl acetamide]
analgesic efficacy at saturation, compared with paracetamol and morphine ([1]; at saturation (750 mg/kg i.p.)): significantly higher than paracetamol and similar to morphine
number of stretches ([1]; compound given 30 minutes before CB1 antagonist AM251 (3 mg/kg i.p.)): 13±1
number of stretches ([1]; compound given 30 minutes before CB2 antagonist AM630 (1 mg/kg i.p.)): 15.5±1.7
dose at which the analgesic effect saturated [1, 4]: 750 mg/kg
effect on COX-2 enzymatic activity (human recombinant COX-2): did not affect the enzymatic activity
effect on TRPV1 channel activity (TRPV1): No significative effect
effect on TRPM8 channel activity (TRPM8): No significative effect
blockade of TRPA1 channel activity (TRPA1 [2]; 50 µM compound, 100 µM AITC): up to 85%
IC50 (TRPA1 [2]; dose-response curve, 100 µM AITC, mean ± SEM, n ≥5, read-out: TRPA1 inhibition IC50): 2.6 µM
nH (hill coefficient) of TRPA1 inhibition (TRPA1 [2]; fit to a binding isotherm): 0.21
IC50 (TRPA1 [3]; 2.0 mM extracellular Ca2+, holding potential -60 mV, estimated, read-out: IC50 of blockade of TRPA1-mediated currents): 10.6 ± 0.7 µM
IC50 (TRPA1 [3]; absence of extracellular Ca2+, inferred, saturation of blockade not reached, read-out: IC50 of blockade of TRPA1 currents): ≥ 80 µM

CC(=O)NC1C2CC3CC1CC(O)(C3)C2 (stereo not shown) [compound 6a, N-5-hydroxyadamantan-2-yl acetamide]
melting point: 184 °C

CC(=O)Nc1ccc(O)cc1 [paracetamol, 4-hydroxyacetanilide, reference compound]
reduction of the nociceptic behavior (writhes) ([1]; 100 mg/kg i.p. 30 minutes before acetic acid): 40%
